As a reminder, the IC50 is the concentration that gives 50% inhibition. In general, inhibition refers to the relative decrease from the control value, in per cent. The term kcat denotes the maximal rate divided by the concentration of active sites.

Bounds are passed on as bounds.

The values below come from article PMC8484451, “Characterization of fluorescent probe substrates to develop an efficient high-throughput assay for neonatal hepatic CYP3A7 inhibition screening” (Scientific Reports, 2021).

In data set [1] the target is T1, CYP3A7 (Homo sapiens, UniProt P24462).
T1 construct: recombinant human CYP3A7 Supersomes (Sf9 insect cell microsomes); with human NADPH-cytochrome P450 reductase and human cytochrome b5 (co-expressed)
The experiment in a line: Michaelis-Menten kinetics (fluorescence). The data set is classed as biochemical. The settings on record: read-out: DBOMF.

In data set [2] the target is T1, CYP3A7. The experiment in a line: fluorescent DBF O-debenzylation inhibition assay with recombinant CYP3A7. Type of data set: biochemical.
The target of data set [3] is T1, CYP3A7. The experiment in a line: fluorescent DBF inhibition assay at […]. The data set is classed as biochemical. To be noted: read-out: % inhibition at 20 μM.
Substrate in data set [4]: c1ccc(COc2ccc3cccnc3c2)cc1
The data set can be described thus: Michaelis-Menten kinetics (fluorescence). Type of data set: biochemical, Homo sapiens. To be noted: NADPH.

Substrate in data set [5]: O=C(OCc1ccccc1)c1ccccc1-c1c2ccc(=O)cc-2oc2cc(OCc3ccccc3)ccc12
The experiment in a line: Michaelis-Menten kinetics (fluorescence); metabolites by LC-MS/MS. Type of data set: biochemical, Homo sapiens. To be noted: NADPH likely binds in the CYP3A7 active site mirroring native substrates.

As to `O=C(OCOCc1ccccc1)c1ccccc1-c1c2ccc(=O)cc-2oc2cc(OCOCc3ccccc3)ccc12` [DBOMF, dibenzyloxymethylfluorescein], the Km on CYP3A7 [1] turned out to be 1.62 µM. Turning to `C[C@]12CC[C@H](OS(=O)(=O)O)CC1=CC[C@@H]1[C@@H]2CC[C@]2(C)C(=O)CC[C@@H]12` [DHEA-S], the IC50 on CYP3A7 [2] was determined as 5.31 µM. With `CC(C)CN(C[C@@H](O)[C@H](Cc1ccccc1)NC(=O)O[C@H]1CO[C@H]2OCC[C@H]21)S(=O)(=O)c1ccc(N)cc1` [Darunavir], the inhibition at 20 µM at CYP3A7 [3] is above 75%. Same read-out and setting: next, `Cc1c(O)cccc1C(=O)N[C@@H](CSc1ccccc1)[C@H](O)CN1C[C@H]2CCCC[C@H]2C[C@H]1C(=O)NC(C)(C)C` [Nelfinavir]: above 75%.

B1: CYP3A7 (Homo sapiens) (protein)
chain: MDLIPNLAVETWLLLAVSLILLYLYGTRTHGLFKKLGIPGPTPLPFLGNALSFRKGYWTFDMECYKKYRKVWGIYDCQQPMLAITDPDMIKTVLVKECYSVFTNRRPFGPVGFMKNAISIAEDEEWKRIRSLLSPTFTSGKLKEMVPIIAQYGDVLVRNLRREAETGKPVTLKHVFGAYSMDVITSTSFGVSIDSLNNPQDPFVENTKKLLRFNPLDPFVLSIKVFPFLTPILEALNITVFPRKVISFLTKSVKQIKEGRLKETQKHRVDFLQLMIDSQNSKDSETHKALSDLELMAQSIIFIFAGYETTSSVLSFIIYELATHPDVQQKVQKEIDTVLPNKAPPTYDTVLQLEYLDMVVNETLRLFPVAMRLERVCKKDVEINGMFIPKGVVVMIPSYVLHHDPKYWTEPEKFLPERFSKKNKDNIDPYIYTPFGSGPRNCIGMRFALVNMKLALVRVLQNFSFKPCKETQIPLKLRFGGLLLTEKPIVLKAESRDETVSGA
notes: recombinant human CYP3A7 Supersomes (Sf9 insect cell microsomes); with human NADPH-cytochrome P450 reductase and human cytochrome b5 (co-expressed)
Take B1: the Km turned out to be 0.913 µM in data set [4] and 0.525 µM in data set [5]. Besides, the kcat came to 0.0217 s⁻¹ in data set [4] and 0.00247 s⁻¹ in data set [5].
